Series [1] in a line: Disassembly of crystallised cholesterol (Sigma) in ethanol solutions of test substance. Format: physicochemical. The note with it: 100 mg crystallised cholesterol; for ratio of carotenoid to cholesterol at which complete disaggregation of the crystals was observed: 20 ml ethanol, 20-22° C., gentle stirring for a couple of minutes; for effect on size or number of the cholesterol crystals: 20 ml ethanol solutions with different concentrations, room temperature. On the procedure: To 100 mg of crystallised cholesterol (Sigma) 20 ml of ethanol solutions with different concentrations of lycopene were added. As a control, 20 ml of the same ethanol was used but without any lycopene. After gentle stirring for a couple of minutes, under the room temperature of about 20-22° C., recording of the results was made.
To 100 mg of crystallised cholesterol (Sigma) 20 ml of ethanol solutions with different concentrations of lutein were added. As a control, 20 ml of the same ethanol was used but without any lutein. After gentle stirring for a couple of minutes, at a room temperature of about 20-22° C., recording of the results was made.
To 100 mg of crystallised cholesterol (Sigma) 20 ml of ethanol solutions with different concentrations of a number of biologically active hydrophobic substances and oils were added. As a control, 20 ml of the same ethanol was used but without any additives. After gentle stirring for a couple of minutes, at a room temperature of about […], recording of the results was made.

The nature of series [2]: Prevention of or interference into the formation of cholesterol crystals (evaporation of ethanol cholesterol solution). Format: physicochemical. The note with it: for effect on rate / formation of cholesterol crystallisation: less than one molecule of lycopene per million molecules of cholesterol. On the procedure:
A solution of 198 ml of 1 g of cholesterol (Sigma) in 99% ethanol was divided in two equal parts. In one part 1 ml of ethanol containing […] of the dissolved lycopene was added. This provided ratio of lycopene to cholesterol as 1:10^6. Into the other part, the control, 1 ml of the ethanol itself was added. Then both samples were left in the dark room for evaporation under 20-22° C. Recording of the status of the both samples were made at least on a daily or even shorter intervals.

A short description of series [3]: Changes of physical properties of cholesterol crystals formed in presence of lycopene. It counts as physicochemical. The source says: In a range of experiments where ratio of cholesterol to lycopene varied, from 1,000 to at least 10,000,000 molecules of the former to 1 molecule of the latter, noticeable changes in the physical properties of crystals were observed.
In all control experiments, cholesterol crystallised into a plate-like crystals, see FIG. 2B and FIG. 2D. Sometimes they could create a thick flat plate of few centimetres across, like the one on the bottom of the glass in the experiment 2, FIG. 2C. However, when lycopene was present in the medium a formation of a new type of crystals was observed.
Under the light and confocal microscopy these difference between two types of cholesterol crystals, in size and shape, are more evident (FIGS. 5A-F and 6A-B).

A short description of series [4]: Disassembly of cholesterol crystals in the arterial wall (pieces of atherosclerotic abdominal aorta incubated 13 days). Details: species or system human. The note with it: 1 μg/ml lycopene in ethanol diluted by PBS 10 fold, room temperature. From the text: It was important to confirm whether carotenoids, and lycopene in particular, can affect folding of cholesterol crystals, which are not just synthesized by a manufacturer, but produced naturally, and particularly those, which are developed during pathological process in human. For this purpose, we used pieces of atherosclerotic abdominal aorta, which were obtained during a combined vascular graft and by-pass surgery.
(§1) This was in terms of their stage of development, with prominently featured cholesterol crystals of similar size, embedded into the atheromatous tissues of the aorta wall. As a control material we collected pieces of the atherosclerotic abdominal aorta containing calcium phosphate crystals.
(§2) Firstly, an ethanol solution 1 μg/ml of lycopene was prepared. It was then diluted by PBS 10 fold. As a control, a solution was made with the same ratio ethanol to PBS but without lycopene. Then pieces of aorta were incubated, in light protected containers at the room temperature of about […] for 13 days.

Series [5] in a line: Control: atherosclerotic abdominal aorta pieces containing calcium phosphate crystals incubated with lycopene. Details: species or system human. The note with it: lycopene-ethanol-PBS, 13 days, room temperature. The procedure:
as §1, §2

Entries after “also recorded” stand apart in the source; their conditions may differ. Where only a bound is given, the exact number is not on record here.

For the compound `CC1=C[C@H](O)CC(C)(C)[C@H]1/C=C/C(C)=C/C=C/C(C)=C/C=C/C=C(C)/C=C/C=C(C)/C=C/C1=C(C)C[C@@H](O)CC1(C)C` [lutein], the “ratio of carotenoid to cholesterol at which complete disaggregation of the crystals was observed” value in series [1] is recorded as 1 to 20,000.

Regarding `CC(C)=CCC/C(C)=C/C=C/C(C)=C/C=C/C(C)=C/C=C/C=C(C)/C=C/C=C(C)/C=C/C=C(\C)CCC=C(C)C` [lycopene], the “effect on rate / formation of cholesterol crystallisation” value in series [2] is reported as “significantly affect the rate of its crystallisation”. In series [2] (listed as Lycopene), the “effect on rate / formation of cholesterol crystallisation” value is “prevents or slows down formation of cholesterol crystallisation”. In series [2] (lycopene to cholesterol 1:10^6, ethanol evaporation in the dark, 20-22° C., control: 12th day), the “day by which crystallisation was completed” value was not above 14 days. In addition, the “day on which floating cholesterol crystals started to appear” value in series [2] (lycopene to cholesterol 1:10^6, ethanol evaporation in the dark, 20-22° C., control: after two days) was found to be 6 days. The “incorporation into newly formed cholesterol crystal structures” value in series [3] is given as “able to incorporate into newly formed crystal structures”. Besides, the “type (size and shape) of cholesterol crystals formed” value in series [3] (cholesterol to lycopene 1,000 to at least 10,000,000 : 1, controls plate-like crystals) was “significantly smaller and in a shape of needle- or narrow tube-like crystals; also recorded: needle-like crystals”. Also, in series [1], the “ratio of carotenoid to cholesterol at which complete disaggregation of the crystals was observed” value is 1 to 100,000. For the same compound, in series [4], the “size of the remaining crystalloid structures” value was “reduced by at least two-fold” and the “size of the surrounding cholesterol-rich atheromatous mass of the lesion” value is “reduced by about two-fold”. Further, the “number of crystalloid structures in the lesion at end of incubation” value in series [4] (three structures at start) is “only two”. The “effect on size or shape of calcium phosphate crystals” value in series [5] was “did not affect size or shape of calcium phosphate crystals”.

Consider “phosphatidylcholine [reference compound]”, for which the “effect on size or number of the cholesterol crystals” value in series [1] was “not able to affect cholesterol crystals”.

As for tocopherol [reference compound], the “effect on size or number of the cholesterol crystals” value in series [1] was “ineffective”.

Source of the values: US11779546B2, “Disassembly of cholesterol crystals” (IP SCIENCE LIMITED, priority 2018, dated 2023).
